Assays:
Assay type in all cases: binding
[1] = test system: human monoclonal antibody CRJB
[2] = test system: human monoclonal antibody CR57
[3] = test system: human monoclonal antibody CRJA
[4] = test system: human monoclonal antibody CRJB; remark: listed apart in the source
[5] = test system: human monoclonal antibody CR57; remark: listed apart in the source
[6] = test system: human monoclonal antibody CRJA; remark: listed apart in the source

Sequence | Binding of CRJB to linear peptide (PEPSCAN-ELISA signal) [1] | Binding of CR57 to linear peptide (PEPSCAN-ELISA signal) [2] | binding of antibody CR57 to linear peptide (PEPSCAN OD) [2] | Binding of CRJA to linear peptide (PEPSCAN-ELISA signal) [3] | Binding of CRJB (10 μg/ml) to looped/cyclic peptide (PEPSCAN-ELISA) [4] | Binding of CR57 (10 μg/ml) to looped/cyclic peptide (PEPSCAN-ELISA) [5] | Binding of CRJA (10 μg/ml) to looped/cyclic peptide (PEPSCAN-ELISA) [6] | Binding of CRJB (10 μg/ml) to looped/cyclic peptide (PEPSCAN-ELISA signal) [4] | Binding of CR57 (10 μg/ml) to looped/cyclic peptide (PEPSCAN-ELISA signal) [5] | Binding of CRJA (10 μg/ml) to looped/cyclic peptide (PEPSCAN-ELISA signal) [6] | Binding of human monoclonal antibody CRJB to linear peptide (PEPSCAN-ELISA signal) [1] | Binding of human monoclonal antibody CR57 to linear peptide (PEPSCAN-ELISA signal) [2] | Binding of human monoclonal antibody CRJA to linear peptide (PEPSCAN-ELISA signal) [3] | Binding of CRJB to looped/cyclic peptide (PEPSCAN-ELISA signal) [4] | Binding of CR57 to looped/cyclic peptide (PEPSCAN-ELISA signal) [5] | Binding of CRJA to looped/cyclic peptide (PEPSCAN-ELISA signal) [6]
KLKLCGVLGLRLMDG | 120 | 273 | bound | 101 | 63 | 13 | 79 |  |  |  |  |  |  |  |  | 
TVKTTKESLVIISPS | 116 | 76 |  | 93 |  |  |  | 55 | 94 | 92 |  |  |  |  |  | 
DFVEVHLPDVHNQVS |  |  |  |  |  |  |  |  |  |  | 141 | 96 | 92 | 92 | 113 | 113
STYCSTNHDYTIWMP | 99 | 86 |  | 79 |  |  |  | 82 | 90 | 90 |  |  |  |  |  | 
CSTNHDYTIWMPENP | 106 | 52 |  | 58 |  |  |  | 72 | 47 | 41 |  |  |  |  |  | 
GIILGPDGNVLIPEM | 132 | 107 |  | 107 | 93 | 108 | 92 |  |  |  |  |  |  |  |  | 
QTSNETKWCPPDQLV | 120 | 92 |  | 90 | 62 | 118 | 106 |  |  |  |  |  |  |  |  | 
IHHLSCPNNLVVEDE | 85 | 37 |  | 79 |  |  |  | 71 | 46 | 76 |  |  |  |  |  | 
GLYKSLKGACKLKLC | 129 | 94 |  | 91 | 97 | 86 | 100 |  |  |  |  |  |  |  |  | 
LKLCGVLGLRLMDGT | 145 | 918 | bound | 100 | 72 | 89 | 90 |  |  |  |  |  |  |  |  | 
MELLESSVIPLVHPL | 125 | 90 |  | 83 | 100 | 115 | 94 |  |  |  |  |  |  |  |  | 
YILAIKMNGFTCTGV | 107 | 47 |  | 45 |  |  |  | 49 | 55 | 45 |  |  |  |  |  | 
RASKGSETCGFVDER | 110 | 86 |  | 90 | 90 | 105 | 100 |  |  |  |  |  |  |  |  | 
AHYKSVRTWNEILPS | 160 | 112 |  | 106 | 106 | 106 | 104 |  |  |  |  |  |  |  |  | 
KRKHFRPTPDACRAA | 93 | 65 |  | 65 |  |  |  | 84 | 94 | 85 |  |  |  |  |  | 
TTFKRKHFRPTPDAC | 99 | 74 |  | 111 |  |  |  | 78 | 86 | 89 |  |  |  |  |  | 
LDALESIMTTKSVSF | 116 | 97 |  | 92 | 106 | 108 | 90 |  |  |  |  |  |  |  |  | 
RLSHLRKLVPGFGKA | 123 | 93 |  | 93 | 111 | 111 | 106 |  |  |  |  |  |  |  |  | 
SGFSYMELKVGYILA | 132 | 79 |  | 105 |  |  |  | 83 | 74 | 69 |  |  |  |  |  | 
SSLLQQHMELLESSV | 128 | 90 |  | 106 | 76 | 98 | 90 |  |  |  |  |  |  |  |  | 
VTEAENYTNFVGYVT | 90 | 79 |  | 79 |  |  |  | 80 | 84 | 97 |  |  |  |  |  | 
MELKVGYILAIKMNG | 141 | 76 |  | 92 |  |  |  | 93 | 71 | 66 |  |  |  |  |  | 
RGKRASKGSETCGFV | 104 | 75 |  | 87 | 68 | 101 | 102 |  |  |  |  |  |  |  |  | 
DYRWLRTVKTTKESL | 111 | 54 |  | 55 |  |  |  | 49 | 46 | 45 |  |  |  |  |  | 
IYTILDKLGPWSPID | 97 | 44 |  | 83 |  |  |  | 58 | 66 | 78 |  |  |  |  |  | 
GVAVSSTYCSTNHDY | 114 | 79 |  | 83 |  |  |  | 80 | 111 | 96 |  |  |  |  |  | 
DGTWVAMQTSNETKW | 114 | 69 |  | 63 | 58 | 56 | 45 |  |  |  |  |  |  |  |  | 
ILAIKMNGFTCTGVV | 103 | 79 |  | 87 |  |  |  | 72 | 77 | 45 |  |  |  |  |  | 
YVTTTFKRKHFRPTP | 106 | 85 |  | 84 |  |  |  | 111 | 146 | 137 |  |  |  |  |  | 

Reference: patent US20060263802A1 (priority 2003, published 2006)
